Where only a bound is given, the exact number is not on record here.

One test addresses SARS-COV-2 3CLpro/Mpro protease (Severe acute respiratory syndrome coronavirus 2 (2019-nCoV) (SARS-CoV-2), UniProt P0DTD1). Nature of the test: Inhibitory effect on SARS-COV-2 3CLpro/Mpro protease by fluorescence resonance energy transfer. Type of test: biochemical. The settings on record: IC50 (nM), Inhibition on SARS-CoV-2 3CLpro/Mpro protease, activity intervals A-D.
Take `CNc1cncc(C(=O)N2CCC[C@@H](Nc3c(C(=O)N4C5COCC4C5)cc(Br)cc3[N+](=O)[O-])C2)c1` [Example 357, ((3R)-3-((2-(3-oxa-6-azabicyclo[3.1.1]heptan-6-carbonyl)-4-bromo-6-nitrophenyl)amino)piperidin-1-yl)(5-(methylamino)pyridin-3-yl)methanone]: the IC50 lay in the range of 10 to 50 nM.

Still in this test, the particulars now being: activity intervals A-D, read-out: IC50 (nM), Inhibition on SARS-CoV-2 3CLpro/Mpro protease.
With `C[C@H]1CCCN(C(=O)c2cc(Br)cc([N+](=O)[O-])c2N[C@@H]2CCCN(C(=O)[C@H]3CC(=O)N[C@@H](C)C3)C2)C1` [Example 33, (4R,6S)-4-((R)-3-((4-bromo-2-((S)-3-methylpiperidin-1-carbonyl)-6-nitrophenyl)amino)piperidin-1-carbonyl)-6-methylpiperidin-2-one], the IC50 was 10 to 50 nM. As to `CC1CC(C(=O)N2CCC[C@@H](Nc3c(C(=O)N4C[C@@H](C)O[C@@H](C)C4)cc(Br)cc3[N+](=O)[O-])C2)CC(=O)N1` (some centres unmarked) [Example 179], the IC50 was 50 to 100 nM. For the compound `NC(=O)c1cncc(C(=O)N2CCC[C@@H](Nc3c(C(=O)N4CCCCC4)cc(Br)cc3[N+](=O)[O-])C2)c1` [Example 302], the IC50 lay within 100 to 200 nM. With `CNc1cncc(C(=O)N2C[C@H](Nc3c(C(=O)N4CCOC[C@H]4C)cc(Br)cc3[N+](=O)[O-])[C@@H](OC)C2)c1` [Example 367], the IC50 was in the range of 10 to 50 nM. `CNc1cncc(C(=O)N2C[C@H](Nc3c(C(=O)N4C[C@@H](C)O[C@@H](C)C4)cc(Br)cc3[N+](=O)[O-])C[C@@H](O[C@@H]3CCOC3)C2)c1` [Example 448]: the IC50 fell in the range of 10 to 50 nM.

As to `CNc1cncc(C(=O)N2CCC[C@@H](Nc3c(C(=O)N4CCC5(CC4)COC5)cc(Br)cc3[N+](=O)[O-])C2)c1` [Example 236], the IC50 was in the range of 10 to 50 nM. With `COCCN1CCN(C(=O)c2cc(Br)cc([N+](=O)[O-])c2N[C@@H]2CCCC[C@@H]2NC(=O)c2cncc3cc(Cl)ccc23)CC1` [Example 111], the IC50 was less than 10 nM. The same measure, in the same setting: as for `O=C(N[C@H]1CCOC[C@H]1Nc1c(C(=O)N2CCC(F)(F)CC2)cc(Br)cc1[N+](=O)[O-])c1cncc2cc(Cl)ccc12` [Example 185], the figure is 10 to 50 nM; as for `CNc1cncc(C(=O)N2C[C@H](Nc3c(C(=O)N4C[C@H](C)C[C@@H](C)C4)cc(Br)cc3[N+](=O)[O-])C(F)(F)C2)c1` [Example 202], 10 to 50 nM; as for `CNc1cncc(C(=O)N2C[C@H](Nc3c(C(=O)N4CCCCC4)cc(Br)cc3[N+](=O)[O-])C3(CC3)C2)c1` [Example 82], 10 to 50 nM. Turning to `O=C(c1cncc(Br)c1)N1CCC[C@@H](Nc2c(C(=O)N3CCC(F)(F)CC3)cc(Br)cc2C(F)(F)F)C1` [Example 49], the IC50 was 10 to 50 nM.

As for `CNc1cncc(C(=O)N[C@H]2CCCC[C@H]2Nc2c(C(=O)N3C[C@H](C)O[C@@H](C)C3)cc(Br)cc2[N+](=O)[O-])c1` [Example 217], the IC50 lay in the range of 50 to 100 nM. Take `CNc1cncc(C(=O)N2C[C@H](Nc3c(C(=O)N4C[C@H](C)C[C@H](C)C4)cc(Br)cc3[N+](=O)[O-])C3(CC3)C2)c1` [Example 86]: the IC50 lay in the range of 10 to 50 nM.

In the case of `CNc1cncc(C(=O)N2CCC[C@@H](Nc3c(C(=O)N4CCN(CCOC)[C@H](C)C4)cc(Br)cc3[N+](=O)[O-])C2)c1` [Example 238], the IC50 is 10 to 50 nM. As for `O=C(N[C@H]1CCCC[C@H]1Nc1c(C(=O)N2C[C@@H](O)CO2)cc(Br)cc1[N+](=O)[O-])c1cncc2cc(Cl)ccc12` [Example 122], the IC50 fell in the range of 10 to 50 nM. In the case of `CNc1cncc(C(=O)N2CC(Nc3c(C(=O)N4CCN(C5CCCCC5)CC4)cc(Br)cc3[N+](=O)[O-])C(F)(F)C2)c1` (centres unmarked) [Example 172], the IC50 lay within 10 to 50 nM.

With `CNc1cncc(C(=O)N2CCC[C@@H](Nc3c(C(=O)N4CCCCC4)cc(Br)cc3C(F)(F)F)C2)c1` [Example 319], the IC50 was 50 to 100 nM. Turning to `C[C@@H]1CN(C(=O)c2cc(Br)cc([N+](=O)[O-])c2N[C@@H]2CCCN(C(=O)C3CCCOC3)C2)C[C@H](C)O1` (some centres unmarked) [Example 145], the IC50 lay in the range of 10 to 50 nM. On the same count and under the same terms, as for `COCCN1CCN(C(=O)c2cc(Br)cc([N+](=O)[O-])c2NC2CN(C(=O)c3cncc(I)c3)CC2(F)F)CC1` (centres unmarked) [Example 181], the figure is 10 to 50 nM. Regarding `CNc1cncc(C(=O)N2CCC[C@@H](Nc3c(C(=O)N4CCN(CC(F)(F)F)CC4)cc(Br)cc3[N+](=O)[O-])C2)c1` [Example 22], the IC50 was in the range of 10 to 50 nM.

As for `Cc1cc(C(=O)N2C[C@H](Nc3c(C(=O)NCC(F)(F)F)cc(Br)cc3[N+](=O)[O-])C3(CC3)C2)cc(=O)[nH]1` [Example 89], the IC50 is 10 to 50 nM. On to `CNc1cncc(C(=O)N2CCC[C@@H](Nc3c(C(=O)N4CCOC[C@H]4C)cc(Br)cc3[N+](=O)[O-])C2)c1` [Example 355], for which the IC50 was in the range of 10 to 50 nM. As for `CNc1cncc(C(=O)N2C[C@H](Nc3c(C(=O)N4C[C@@H](C)O[C@@H](C)C4)cc(Br)cc3[N+](=O)[O-])CC[C@H]2C#N)c1` [Example 398], the IC50 is 10 to 50 nM. For the compound `C[C@@H]1CN(C(=O)c2cc(Br)cc([N+](=O)[O-])c2N[C@H]2CN(C(=O)c3cncc(Br)c3)CC2(C)C)C[C@@H](C)O1` [Example 220], the IC50 lay within 50 to 100 nM.

Take `CNc1cncc(C(=O)N2C[C@H](Nc3c(C(=O)N4C[C@@H](C)O[C@@H](C)C4)cc(Br)cc3[N+](=O)[O-])C[C@H]2C(=O)Nc2cnn(C)c2)c1` [Example 401]: the IC50 was in the range of 50 to 100 nM. For `COCCN1CCN(C(=O)c2cc(Br)cc([N+](=O)[O-])c2N[C@H]2CN(C(=O)c3cncc(Br)c3)CC2(C)O)CC1` (some centres unmarked) [Example 287], the IC50 is 10 to 50 nM. As for `C[C@@H]1CN(C(=O)c2cc(Br)cc([N+](=O)[O-])c2N[C@@H]2CCCN(C(=O)[C@@H]3CCCOC3)C2)C[C@H](C)O1` [Example 348], the IC50 was 10 to 50 nM. For `Cc1cc(C(=O)N2C[C@H](Nc3c(C(=O)N4CCC5(CCC5)CC4)cc(Br)cc3[N+](=O)[O-])C3(CC3)C2)cc(=O)[nH]1` [Example 95], the IC50 lay in the range of 10 to 50 nM.

Regarding `CNc1cncc(C(=O)N2CCC[C@@H](Nc3c(C(=O)N4CC(F)(F)CC(F)(F)C4)cc(Br)cc3[N+](=O)[O-])C2)c1` [Example 307], the IC50 lay in the range of 10 to 50 nM.

Regarding `CNc1cncc(C(=O)N2CC(Nc3c(C(=O)N4C[C@H](C)C[C@H](C)C4)cc(Br)cc3[N+](=O)[O-])C(C)(C)C2)c1` (some centres unmarked) [Example 180], the IC50 was in the range of 50 to 100 nM.

Consider `CNc1cncc(C(=O)N2C[C@H](Nc3c(C(=O)N4C[C@H](C)O[C@@H](C)C4)cc(Br)cc3[N+](=O)[O-])C(C)(C)C2)c1` [Example 189], for which the IC50 lay within 10 to 50 nM. `Cc1cc(C(=O)N2C[C@H](Nc3c(C(=O)N4CCC(C)(C)CC4)cc(Br)cc3[N+](=O)[O-])C3(CC3)C2)cc(=O)[nH]1` [Example 93]: the IC50 was 10 to 50 nM. Turning to `C[C@@H]1CN(C(=O)c2cc(Br)cc([N+](=O)[O-])c2N[C@@H]2CCCC[C@@H]2NC(=O)c2cc(=O)[nH]c3ccccc23)C[C@H](C)O1` [Example 121], the IC50 was less than 10 nM.

As for `CO[C@H]1CN(C(=O)c2cncc3[nH]nc(C)c23)C[C@@H]1Nc1c(C(=O)N2C[C@@H](C)O[C@@H](C)C2)cc(Br)cc1[N+](=O)[O-]` [Example 439, (5-Bromo-2-(((3S,4S)-4-methoxy-1-(3-methyl-1H-pyrazolo[3,4-c]pyridin-4-carbonyl)pyrrolidin-3-yl)amino)-3-nitrophenyl)((2S,6R)-2,6-dimethylmorpholinyl)methanone], the IC50 is 10 to 50 nM. Same read-out and setting: as for `O=C1C[C@H](C(=O)N2CCC[C@@H](Nc3c(C(=O)N4CCC5(CCCCC5)CC4)cc(Br)cc3[N+](=O)[O-])C2)CCN1` [Example 158], the figure is 10 to 50 nM. Regarding `CNc1cncc(C(=O)N2C[C@H](Nc3c(C(=O)N4C[C@@H](C)O[C@@H](C)C4)cc(Br)cc3[N+](=O)[O-])CC[C@@H]2C#N)c1` [Example 403], the IC50 is 50 to 100 nM. `CNc1cncc(C(=O)N2CC(Nc3c(C(=O)N4CCN(CC(F)(F)F)C(=O)C4)cc(Br)cc3[N+](=O)[O-])C(F)(F)C2)c1` (centres unmarked) [Example 99]: the IC50 lay in the range of 100 to 200 nM.

For the compound `CNc1cncc(C(=O)N2CC(Nc3c(C(=O)N4CCC5(CCCC5)CC4)cc(Br)cc3[N+](=O)[O-])C(C)(C)C2)c1` (centres unmarked) [Example 176], the IC50 lay within 10 to 50 nM. Consider `CNc1cncc(C(=O)N2CCC[C@@H](Nc3c(C(=O)N4Cc5cnn(C)c5C4)cc(Br)cc3[N+](=O)[O-])C2)c1` [Example 304], for which the IC50 fell in the range of 50 to 100 nM. With `CO[C@H]1CN(C(=O)c2cncc3[nH]ccc23)C[C@@H]1Nc1c(C(=O)N2C[C@@H](C)O[C@@H](C)C2)cc(Br)cc1[N+](=O)[O-]` [Example 423], the IC50 fell in the range of 10 to 50 nM. Still for that read-out and setting: as for `O=C(c1cncc(Br)c1)N1C[C@H](Nc2c(C(=O)N3CCCCC3)cc(Br)cc2[N+](=O)[O-])C(F)(F)C1` [Example 197], the figure is 10 to 50 nM; as for `CNc1cncc(C(=O)N2C[C@H](Nc3c(C(=O)N4C[C@@H](C)O[C@@H](C)C4)cc(Br)cc3[N+](=O)[O-])C[C@@H]2C#N)c1` [Example 391], 50 to 100 nM; as for `N[C@@H]1C[C@H](O)CN(C(=O)c2cc(Br)cc([N+](=O)[O-])c2N[C@@H]2CCCC[C@@H]2NC(=O)c2cncc3ccccc23)C1` [Example 141], 10 to 50 nM. `CO[C@H]1CN(C(=O)c2cncc3[nH]nc(Cl)c23)C[C@@H]1Nc1c(C(=O)N2C[C@@H](C)O[C@@H](C)C2)cc(Br)cc1[N+](=O)[O-]` [Example 444, (5-Bromo-2-(((3S,4S)-1-(3-chloro-1H-pyrazolo[3,4-c]pyridin-4-carbonyl)-4-methoxypyrrolidin-3-yl)amino)-3-nitrophenyl)((2S,6R)-2,6-dimethylmorpholinyl)methanone]: the IC50 was in the range of 10 to 50 nM. `CNc1cncc(C(=O)N2C[C@H](Nc3c(C(=O)N4CCN(CC(F)(F)F)CC4)cc(Br)cc3[N+](=O)[O-])C3(CC3)C2)c1` [Example 84]: the IC50 fell in the range of 10 to 50 nM. Still for that read-out and setting: as for `CNc1cncc(C(=O)N2CCC[C@@H](Nc3c(C(=O)N4CC=C(F)CC4)cc(Br)cc3[N+](=O)[O-])C2)c1` [Example 337, (R)-(5-Bromo-2-((1-(5-(methylamino)nicotinoyl)piperidin-3-yl)amino)-3-nitrophenyl)(4-fluoro-3,6-dihydropyridin-1 (2H)-yl)methanone], the figure is 10 to 50 nM.
